The values that follow come from patent publication US8853353B2, “Membrane type-1 matrix metalloprotein inhibitors and uses thereof” (Angiochem, Inc., priority 2008, dated 2014).

The subject of assay [1] is GST-MT1-MMP cytoplasmic tail fusion protein (GST-MT). As to conditions: recombinant Src kinase, ATP, western blot. The protocol: The GST-MT1-MMP cytoplasmic tail fusion protein (GST-MT) was incubated with recombinant Src kinase in the presence of ATP and the phosphorylation products were analyzed by western blotting.
(Immunoblotting shows a protein as a band on a membrane.)

Assay [2] has as its system medulloblastoma cells (DAOY). As to conditions: 3D collagen gel. The protocol:
(§1) Different tumor cell lines were incubated with the peptides and grown atop of a collagen film (2D) or within a collagen gel (3D).

The subject of assay [3] is glioblastoma cells (U-87). As to conditions: 3D collagen gel. The method, then:
as §1

Assay [4] concerns Fibrosarcoma cells implanted subcutaneously. As to conditions: 10 mg/kg daily subcutaneous. The protocol:
Fibrosarcoma cells were implanted subcutaneously into the flank of athymic nude mice. […] Mice were given daily subcutaneous administrations of 10 mg/kg of peptides or vehicle.

Assay [5] has as its system prostate adinocarcinoma cells (PC-3). As to conditions: prostate cancer cells, 3D collagen gel. The method, then: as §1
In the next assay the test system is tumor cell lines. To be noted: grown atop of a collagen film (2D). The method, then:
as §1

Assay [6] has as its system breast adenocarcinoma cells (MDA-MB-231). As to conditions: breast cancer cells, 3D collagen gel. The protocol: as §1
Assay [7] relates to osteosarcoma cells (MG-63). As to conditions: bone cancer cells, 3D collagen gel. The protocol:
as §1

Assay [8] deals with fibrosarcoma cells (HT-1080). To be noted: 3D collagen gel. The protocol: as §1

On to “Biotin-Ahx-RQIKIWFQNRRMKWKK-TLRQRRCLPHFDSGLRKVRL [scACM-14, reference compound]”, for which the “inhibition of Src-mediated tyrosine phosphorylation of GST-MT” value in [1] was “not observed”. Moreover, the “reduction of proliferation in 3D matrix” value in [2] and in assay [3] was “no effect” each time.
As to “Biotin-Ahx-RQIKIWFQNRRMKWKK-RRHGTPRRLLFCQRSLLDKV [ACM-14]”, the “inhibition of Src-mediated tyrosine phosphorylation of GST-MT” value in assay [1] was “completely inhibited”. Further, in assay [4], the “tumors completely regressed and totally disappeared” value turned out to be 17%. For the same substance, the “reduction of tumor growth” value in [4] (26 days post-implantation) was 70%. In addition, the “inhibition of 3D proliferation” value in assay [5], in [6], in [7] and in assay [8] was “inhibits” throughout. Further, the “reduction of proliferation in 3D matrix” value in assay [2] worked out at 35%; in [3] it was 50%. Besides, in the assay with tumor cell lines, the “effect on tumor cell proliferation in 2D conditions” value is listed as “does not affect”.
